The source of these data is patent US9216178B2, “Dry blend formulation of tetrahydrobiopterin” (BioMarin Pharmaceutical Inc., priority 2011, dated 2015).

Structures can show the parent of a compound that is named as a salt.

One may read the solubility as the dissolved amount per volume that the medium holds.

Series [1] in a line: Stability of BH4 dihydrochloride dry blend powder / sachet formulations. In kind it is physicochemical. As to conditions: Initial time point. How it is done: Stability under different storage conditions were assessed and the potency of the active BH4 dihydrochloride is presented.
Certain embodiments of the sachet dosage forms of the present disclosure are illustrated in Table 18, with a comparison of the stability of different BH4 or BH4-related compounds packaged in foil pouches.

For series [2] the following is noted: children treated for 4, 8, and 12 weeks; cited from earlier work.
The conditions of series [3]: children, after 6 months of treatment; cited from earlier work.
The conditions of series [4]: room temperature, aqueous solutions; cited from earlier work.
A short description of the next series: physchem. In kind it is physicochemical. As to conditions: water. The text has this:
However, despite the commonality of wet granulation methods, it is not ideal for all blends. Specifically, BH4 dihydrochloride is moisture sensitive and will rapidly degrade in the presence of water. Furthermore, BH4 dihydrochloride is pH sensitive and commonly degrades in the presence of reducing sugars, flavoring agents, flavor enhancers, and aqueous solutions and thus wet blending of BH4 dihydrochloride with excipients can lead to degradation of the active ingredient. […] Accordingly, the dry blend method of producing a stable BH4 dihydrochloride powder sachet dosage is ideal.

A short description of series [5]: Clinical evaluation of BH4 capsules: drug levels in cerebrospinal fluid. Type of series: in vivo. As to conditions: doses up to 40 mg/kg/day as a single dose; expected. How it is done: The clinical evaluation comprises two clinical studies.
A first study evaluates the relative bioavailability of BH4 dihydrochloride administered as a capsule in fasted conditions and after a meal in healthy subjects. Ascending doses of BH4 dihydrochloride up to 40 mg/kg/day are evaluated and drug levels in cerebrospinal fluid (CSF) are measured. […] Measurement of BH4 levels in CSF is expected to be indicative of BH4 availability in brain tissues.

`C[C@H](O)[C@H](O)[C@H]1CNc2[nH]c(N)nc(=O)c2N1.Cl.Cl` [100 μg/mL reference API]: in series [1], the “Degradation/impurity: BH2 (Dihydrobiopterin)” value is 0.04 area %, the “Degradation/impurity: BH4” value is listed as 0.05 area %, the “Degradation/impurity: R-Tetrahydrobiolumazine” value is given as 0.05 area % and the “Degradation/impurity: S-BH4” value is 0.03 area %. In series [1], the “Potency (%)” value was 100.6% and the “Total Impurities (%)” value turned out to be 0.17%.
For `C[C@H](O)[C@H](O)[C@H]1CNc2nc(N)[nH]c(=O)c2N1` [BH4, (6R)-L-erythro-5,6,7,8-tetrahydrobiopterin], the “total scores on the Parental Satisfaction Survey (PSS)” value in series [2] is “significant increases”. Moreover, the social interaction scores result in series [3] is recorded as “significant improvement”. The shelf-life entry in series [4] is on record as “less than 8 hours”.
Consider `C[C@H](O)[C@H](O)[C@H]1CNc2nc(N)[nH]c(=O)c2N1` [BH4 dihydrochloride, (6R)-L-erythro-5,6,7,8-tetrahydrobiopterin dihydrochloride], for which the solubility in “physchem” is greater than 100 mg/mL. Besides, the “peak levels of BH4 in CSF” value in series [5] was “higher peak levels”.
